According to ChEMBL document CHEMBL1122753, “Interaction of N4-hydroxy-2'-deoxycytidylic acid with thymidylate synthetase” (J Med Chem, 1984):
Blank lines part the entries; values can stand above or below the compound they belong to. Calls of active or inactive are those of the source. No cut-off for these calls is given here.

Experiments:
[1] = target: T1, Thymidylate synthase (Homo sapiens, UniProt P04818); assay: The apparent association constant (Ki) with dTMP synthetase enzyme from chick embryo in the absence of CH2-H4 folate was evaluated using conventional spectrophotometric assay; Active; set-up: species or system Gallus gallus
Target sequence in this assay (P04818 whole entry): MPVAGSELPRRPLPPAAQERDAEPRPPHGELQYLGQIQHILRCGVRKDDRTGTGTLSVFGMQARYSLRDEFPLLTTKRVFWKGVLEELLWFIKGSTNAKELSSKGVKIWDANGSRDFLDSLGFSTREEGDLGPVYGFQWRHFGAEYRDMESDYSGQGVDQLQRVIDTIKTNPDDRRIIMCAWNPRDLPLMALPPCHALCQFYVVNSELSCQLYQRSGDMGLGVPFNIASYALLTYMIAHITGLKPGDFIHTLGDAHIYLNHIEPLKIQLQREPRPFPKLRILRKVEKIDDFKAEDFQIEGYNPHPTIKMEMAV

[2] = target: T2, Thymidylate synthase (Lactobacillus casei, UniProt P00469); assay: The apparent association constant (Ki) with dTMP synthetase enzyme from chick embryo in the absence of CH2-H4 folate was evaluated; set-up: species or system Lacticaseibacillus casei
T2 sequence (P00469 whole entry): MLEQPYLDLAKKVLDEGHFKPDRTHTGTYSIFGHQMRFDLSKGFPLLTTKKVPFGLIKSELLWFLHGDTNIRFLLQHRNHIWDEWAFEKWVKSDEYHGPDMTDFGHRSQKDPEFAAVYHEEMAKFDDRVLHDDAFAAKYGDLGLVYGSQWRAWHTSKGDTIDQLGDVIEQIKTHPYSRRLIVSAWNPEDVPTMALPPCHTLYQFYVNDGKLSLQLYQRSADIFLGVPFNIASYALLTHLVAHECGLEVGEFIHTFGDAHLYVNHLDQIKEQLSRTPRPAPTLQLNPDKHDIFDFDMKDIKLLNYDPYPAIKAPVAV

[3] = target: T1, Thymidylate synthase; assay: Compound (4.5 uM) was evaluated for the percent binding to the excess dTMP synthetase (3.9 uM and 7.8 uM sites) enzyme from chick embryo, […] of CH2-H4 folate. This complex was incubated 25 degrees Celsius for 2 hours.; conditions: Gallus gallus; target entry is the homologue from another species
Target sequence in this assay (P04818 2-313 limits assumed): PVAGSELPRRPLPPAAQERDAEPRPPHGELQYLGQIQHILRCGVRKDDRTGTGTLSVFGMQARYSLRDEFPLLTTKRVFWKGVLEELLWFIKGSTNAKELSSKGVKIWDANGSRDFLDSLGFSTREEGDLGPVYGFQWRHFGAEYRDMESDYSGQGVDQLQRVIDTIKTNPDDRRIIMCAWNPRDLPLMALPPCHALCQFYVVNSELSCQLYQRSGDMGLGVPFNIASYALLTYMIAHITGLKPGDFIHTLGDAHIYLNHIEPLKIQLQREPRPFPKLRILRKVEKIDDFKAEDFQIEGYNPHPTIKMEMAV

[4] = target: T1, Thymidylate synthase; assay: Compound was evaluated for time-dependent loss of activity with use of 15 nM of dTMP synthetase enzyme from chick embryo in the presence of […] of CH2-H4 folate at about 20 seconds; format: functional; conditions: Gallus gallus; target entry is the homologue from another species
Target sequence in this assay (P04818 2-313 limits assumed): as above

[5] = target: T1, Thymidylate synthase; assay: Compound was evaluated for the dissociation of the radiolabeled N4-HOdCMP by competitive binding to the excess dTMP synthetase; Active; conditions: Gallus gallus
Target sequence in this assay (P04818 2-313 limits assumed): as above

[6] = target: T1, Thymidylate synthase; assay: The apparent association constant (Ki) with dTMP synthetase enzyme from chick embryo in the absence of CH2-H4 folate was evaluated; Active; set-up: species or system Gallus gallus; conditions: target entry is the homologue from another species
Target sequence in this assay (P04818 whole entry): as the sequence (P04818 whole entry) above

- Ki [1]: Active
SMILES: O=c1ccn([C@H]2C[C@H](O)[C@@H](COP(=O)(O)O)O2)c(=O)[nH]1 [DEOXYURIDINE MONOPHOSPHATE]

SMILES: O=c1nc(NO)ccn1[C@H]1C[C@H](O)[C@@H](COP(=O)(O)O)O1
- Ki [2]: 8 µM
- Binding [3]: 90%
- Loss of activity [4]: 50%
- Dissociation [5]: Active

- Ki [6]: Active
SMILES: Cc1cn([C@H]2C[C@H](O)[C@@H](COP(=O)(O)O)O2)c(=O)[nH]c1=O [THYMIDINE MONOPHOSPHATE]
